Experiment [1] has as its target HCV NS3/4A protease complex, BMS strain (UniProt P27958, C1454S/C1711G, species not given/STRAIN_BMS). Description: Recombinant HCV NS3/4A protease complex FRET peptide assay (BMS strain). Type of experiment: biochemical, HCV genotype 1a. A digest of the protocol:
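Recombinant BMS-strain NS3/4A (His-tagged NS4A with three-lysine tail, E. coli) at 2-3 nM preincubated 1 min with compound, then 2 μM ester-linked NS4A/NS4B-based FRET peptide added. Fluorescence followed in real time ~15 min at 25° C. Percent inhibition from slope of linear fluorescence change versus no-compound control.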

For experiment [2], the system named is HCV replicon in Huh7 cells. In words: HCV replicon cell-based assay. Details: species or system HCV strain 1B. Conditions: Hepatitis C virus, Huh-7; HCV replicon, Huh7 cells; read-out: EC50 range.
Setting [3] is: NS3/4A BMS strain; read-out: IC50 range.

Read-outs that look alike come from different tables or passages of the source. Some results are limits rather than exact numbers.

Regarding `C=C[C@@H]1C[C@]1(NC(=O)[C@@H]1C[C@@H](Oc2cncc(-c3nccs3)c2)CN1C(=O)[C@@H](NC(=O)OC(C)(C)C)C(C)(C)C)C(=O)NS(=O)(=O)C1CC1` [Compound 432], in experiment [1] (setting [3]), the half-maximal inhibitory concentration (IC50) was under 0.1 µM. For the same molecule, the EC50 in experiment [2] lay within 0.1 to 1 µM.
With `C=C[C@@H]1C[C@]1(NC(=O)[C@@H]1C[C@@H](Oc2ccnc3cc(Cl)ccc23)CN1C(=O)[C@@H](NC(=O)OC(C)(C)C)C(C)(C)C)C(=O)NS(=O)(=O)C1CC1` [Compound 371], the IC50 in experiment [1] (setting [3]) was under 0.1 µM. The EC50 in experiment [2] was under 0.1 µM.
`C=CC1C[C@]1(NC(=O)[C@@H]1C[C@@H](Oc2nccc3cc(C)ccc23)CN1C(=O)[C@@H](NC(=O)OC(C)(C)C)C(C)(C)C)C(=O)NS(=O)(=O)C1CC1` (stereo partly drawn) [Compound 210, BOCNH-P3(L-tert-BuGly)-P2[(4R)-(6-methyl isoquinolin-1-oxo)-S -proline]-P1(1R,2S Vinyl Acca)-CONHSO2-Cyclopropane]: the IC50 in experiment [1] (setting [3]) is under 0.1 µM. Besides, the EC50 in experiment [2] was under 0.1 µM.
In the case of `C=C[C@@H]1C[C@]1(NC(=O)[C@@H]1C[C@@H](Oc2nccc3cc(OC)ccc23)CN1C(=O)[C@@H](NC(=O)N[C@H](C(=O)OC)[C@@H](C)CC)C(C)(C)C)C(=O)NS(=O)(=O)C1CC1` [Compound 151], the half-inhibitory concentration (IC50) in experiment [1] (setting [3]) was under 0.1 µM. Further, the 50% effective concentration (EC50) in experiment [2] is under 0.1 µM.
On to `C=CC1CC1(NC(=O)C1CC(Oc2nc(-c3ccccc3)nc3ccc(OC)cc23)CN1C(=O)[C@@H](NC(=O)OC(C)(C)C)C(C)(C)C)C(=O)NS(=O)(=O)C(C)C` (mixture of isomers) [Compound 45], for which the IC50 in experiment [1] (setting [3]) fell in the range of 0.1 to 1 µM. The EC50 in experiment [2] fell in the range of 1 to 10 µM.
For the molecule `C=CC1C[C@]1(NC(=O)[C@@H]1C[C@@H](Oc2nc(-c3ccccc3N(C)C)cc3cc(OC)ccc23)CN1C(=O)[C@@H](NC(=O)OC(C)(C)C)C(C)(C)C)C(=O)NS(=O)(=O)C1CC1` (stereo partly shown) [Compound 329], in experiment [1] (setting [3]), the IC50 was under 0.1 µM. Moreover, the EC50 in experiment [2] is under 0.1 µM.
Consider `C=C[C@@H]1C[C@]1(NC(=O)[C@@H]1C[C@@H](Oc2nccc3cc(OC)ccc23)CN1C(=O)[C@@H](NC(=O)OC1CCCC1)C(C)(C)C)C(=O)NS(=O)(=O)C1CCC1` [Compound 380], for which, in experiment [1] (setting [3]), the IC50 was under 0.1 µM. In addition, the half-maximal effective concentration (EC50) in experiment [2] lay in the range of 0.1 to 1 µM.
For `C=C[C@@H]1C[C@]1(NC(=O)[C@@H]1CC(Oc2nccc3cc(OC)ccc23)CN1C(=O)[C@@H](NC(=O)COC)C(C)(C)C)C(=O)NS(=O)(=O)C1CC1` (stereo partly shown) [Compound 59], in that order: under 0.1 µM and 0.1 to 1 µM.
As for `C=CC1C[C@]1(NC(=O)[C@@H]1C[C@@H](Oc2ccnc3ccc(F)cc23)CN1C(=O)[C@@H](NC(=O)OC(C)(C)C)C(C)(C)C)C(=O)NS(=O)(=O)C1CC1` (stereo partly drawn) [Compound 239, BOCNH-P3(L-t-BuGly)-P2[(4R)-(6-fluoroquinoline-4-oxo)-S -proline]-P1(1R,2S VinylAcca)-CONHSO2Cyclopropane], the IC50 in experiment [1] (setting [3]) was under 0.1 µM. Further, the EC50 in experiment [2] was under 0.1 µM.
Turning to `C=C[C@@H]1CC1(NC(=O)[C@@H]1CC(Oc2nccc3cc(OC)ccc23)CN1C(=O)[C@@H](NC(=O)CC1CC1)C(C)(C)C)C(=O)NS(=O)(=O)C1CC1` (stereo partly shown) [Compound 58], the IC50 in experiment [1] (read-out: IC50 range; NS3/4A BMS strain) was under 0.1 µM. Also, in experiment [2], the EC50 is under 0.1 µM.
With `C=CC1C[C@]1(NC(=O)[C@@H]1C[C@@H](Oc2nccc3c(C(=O)c4cccs4)c(OC)ccc23)CN1C(=O)[C@@H](NC(=O)OC(C)(C)C)C(C)(C)C)C(=O)NS(=O)(=O)C1CC1` (stereo partly shown) [Compound 209], the half-maximal inhibitory concentration (IC50) in experiment [1] (setting [3]) is under 0.1 µM. Also, in experiment [2], the concentration for a half-maximal effect (EC50) lay within 0.1 to 1 µM.
For `C=C[C@@H]1C[C@]1(NC(=O)[C@@H]1C[C@@H](Oc2nccc3c(OC)c(OC)ccc23)CN1C(=O)[C@@H](NC(=O)OC(C)(C)C)C(C)(C)C)C(=O)NS(=O)(=O)C1CC1` [Compound 272], in that order: under 0.1 µM and under 0.1 µM.
For `C=C[C@@H]1C[C@]1(NC(=O)[C@@H]1CC(Oc2nccc3cc(OC)ccc23)CN1C(=O)[C@@H](NC(=O)C(CC)CC)C(C)(C)C)C(=O)NS(=O)(=O)C1CC1` (stereo partly shown) [Compound 57], in that order: under 0.1 µM and 0.1 to 1 µM.
For `C=CC1C[C@]1(NC(=O)[C@@H]1C[C@@H](Oc2nccc3cc(C(C)C)ccc23)CN1C(=O)[C@@H](NC(=O)OC(C)(C)C)C(C)(C)C)C(=O)NS(=O)(=O)C1CC1` (stereo partly drawn) [Compound 190, BOCNH-P3(L-tert-BuGly)-P2[(4R)-(6-isopropyl isoquinolin-1-oxo)-S-proline]-P1(1R,2S Vinyl Acca)-CONHSO2-Cyclopropane], in that order: under 0.1 µM and 0.1 to 1 µM.
`C=C[C@@H]1C[C@]1(NC(=O)[C@@H]1C[C@@H](Oc2nccc3c4c(ccc23)OCCO4)CN1C(=O)[C@@H](NC(=O)OC(C)(C)C)C(C)(C)C)C(=O)NS(=O)(=O)C1CC1` [Compound 286]: in experiment [1] (setting [3]), the concentration for half-maximal inhibition (IC50) is under 0.1 µM. Further, the concentration giving a half-maximal response (EC50) in experiment [2] is under 0.1 µM.
Turning to `C=C[C@@H]1C[C@]1(NC(=O)[C@@H]1C[C@@H](Oc2cc(-c3ccccc3)nc(-c3cccs3)c2)CN1C(=O)[C@@H](NC(=O)OC(C)(C)C)C(C)(C)C)C(=O)NS(=O)(=O)C1CC1` [Compound 413], the IC50 in experiment [1] (setting [3]) was under 0.1 µM. The concentration giving a half-maximal response (EC50) in experiment [2] was under 0.1 µM.
Turning to `C=C[C@@H]1C[C@]1(NC(=O)[C@@H]1C[C@@H](Oc2nccc3cc(OC)ccc23)CN1C(=O)[C@@H](NC(=O)NC1CCCC1)[C@H](C)OC)C(=O)NS(=O)(=O)C1CC1` [Compound 103], the IC50 in experiment [1] (setting [3]) is under 0.1 µM. In experiment [2], the EC50 is under 0.1 µM.
Regarding `C=CC1C[C@]1(NC(=O)[C@@H]1C[C@@H](Oc2nc(-c3cccc(N(C)C)c3)cc3cc(OC)ccc23)CN1C(=O)[C@@H](NC(=O)OC(C)(C)C)C(C)(C)C)C(=O)NS(=O)(=O)C1CC1` (stereo partly shown) [Compound 330], the IC50 in experiment [1] (setting [3]) was under 0.1 µM. The 50% effective concentration (EC50) in experiment [2] was under 0.1 µM.
For `C=CC1C[C@]1(NC(=O)[C@@H]1C[C@@H](Oc2nccc(-c3nccs3)n2)CN1C(=O)[C@@H](NC(=O)CC1CC1)C(C)(C)C)C(=O)NS(=O)(=O)C1CC1` (stereo partly shown) [Compound 340], the 50% inhibitory concentration (IC50) in experiment [1] (setting [3]) was under 0.1 µM. Moreover, the EC50 in experiment [2] is 10 to 100 µM.
For the molecule `C=C[C@@H]1C[C@]1(NC(=O)[C@@H]1C[C@@H](Oc2nccc3ccccc23)CN1C(=O)[C@@H](NC(=O)O[C@@H]1C[C@H](C)CC[C@H]1C(C)C)C(C)(C)C)C(=O)NS(=O)(=O)C1CC1` [Compound 128], the IC50 in experiment [1] (setting [3]) is under 0.1 µM. Besides, in experiment [2], the concentration for a half-maximal effect (EC50) lay in the range of 0.1 to 1 µM.
`C=C[C@@H]1C[C@]1(NC(=O)[C@@H]1CC(Oc2nccc3cc(OC)ccc23)CN1C(=O)[C@@H](NC(=O)OC(C)(C)C(Cl)(Cl)Cl)C(C)(C)C)C(=O)NS(=O)(=O)C1CC1` (stereo partly shown) [Compound 68]: in experiment [1] (setting [3]), the half-maximal inhibitory concentration (IC50) is under 0.1 µM. The half-maximal effective concentration (EC50) in experiment [2] is under 0.1 µM.
Take `C=C[C@@H]1CC1(NC(=O)[C@@H]1CC(Oc2nccc3cc(OC)ccc23)CN1C(=O)[C@@H](NC(=O)NC1CCCC1)C(C)(C)C)C(=O)NS(=O)(=O)C1CC1` (stereo partly shown) [Compound 75]: the IC50 in experiment [1] (setting [3]) is under 0.1 µM. Moreover, in experiment [2], the concentration giving a half-maximal response (EC50) was under 0.1 µM.
As to `C=C[C@@H]1C[C@]1(NC(=O)[C@@H]1CC(Oc2nccc3cc(OC)ccc23)CN1C(=O)[C@@H](NC(=O)C1CCCC1)C(C)(C)C)C(=O)NS(=O)(=O)C1CC1` (stereo partly shown) [Compound 56], the concentration for half-maximal inhibition (IC50) in experiment [1] (setting [3]) was under 0.1 µM. The concentration for a half-maximal effect (EC50) in experiment [2] was under 0.1 µM.
For the molecule `C=C[C@@H]1C[C@]1(NC(=O)[C@@H]1C[C@@H](Oc2nccc3cc4c(cc23)OC(F)(F)O4)CN1C(=O)[C@@H](NC(=O)OC(C)(C)C)C(C)(C)C)C(=O)NS(=O)(=O)C1CC1` [Compound 288], in experiment [1] (setting [3]), the IC50 was under 0.1 µM. Moreover, the EC50 in experiment [2] lay within 1 to 10 µM.
For `C=C[C@@H]1C[C@]1(NC(=O)[C@@H]1C[C@@H](Oc2nccc3cc(OC)ccc23)CN1C(=O)[C@@H](NC(=O)OC(C)(C)C)[C@H](C)O)C(=O)NS(=O)(=O)C1CC1` [Compound 95], in that order: under 0.1 µM and 0.1 to 1 µM.
As to `C=C[C@@H]1C[C@]1(NC(=O)[C@@H]1CC(Oc2nccc3cc(OC)ccc23)CN1C(=O)[C@@H](NC(=O)OC(C)(C)c1ccccc1)C(C)(C)C)C(=O)NS(=O)(=O)C1CC1` (stereo partly shown) [Compound 72], the 50% inhibitory concentration (IC50) in experiment [1] (setting [3]) is under 0.1 µM. In experiment [2], the EC50 lay in the range of 0.1 to 1 µM.
On to `C=C[C@@H]1C[C@]1(NC(=O)[C@@H]1C[C@@H](Oc2cc3c(Cl)nccc3cc2OC)CN1C(=O)[C@@H](NC(=O)OC(C)(C)C)C(C)(C)C)C(=O)NS(=O)(=O)C1CC1` [Compound 262], for which the IC50 in experiment [1] (setting [3]) was under 0.1 µM. For the same molecule, the concentration giving a half-maximal response (EC50) in experiment [2] is under 0.1 µM.
With `C=C[C@@H]1C[C@]1(NC(=O)[C@@H]1CC(Oc2nccc3cc(OC)ccc23)CN1C(=O)[C@@H](NC(=O)OC1CCC1)C(C)(C)C)C(=O)NS(=O)(=O)C1CC1` (stereo partly shown) [Compound 71], the IC50 in experiment [1] (setting [3]) was under 0.1 µM. In experiment [2], the 50% effective concentration (EC50) is under 0.1 µM.
`C=C[C@@H]1C[C@]1(NC(=O)[C@@H]1C[C@@H](Oc2nccc3ccccc23)CN1C(=O)[C@@H](NC(=O)Oc1ccc(C)cc1)C(C)(C)C)C(=O)NS(=O)(=O)C1CC1` [Compound 120]: the IC50 in experiment [1] (setting [3]) is under 0.1 µM. Further, the concentration for a half-maximal effect (EC50) in experiment [2] was 0.1 to 1 µM.
For `CC[C@@H]1C[C@]1(NC(=O)[C@@H]1C[C@@H](Oc2nccc3c(F)c(OC)ccc23)CN1C(=O)[C@@H](NC(=O)OC(C)(C)C)C(C)(C)C)C(=O)NS(=O)(=O)C1CC1` [Compound 299], in that order: under 0.1 µM and 0.1 to 1 µM.
For `C=CC1C[C@]1(NC(=O)[C@@H]1C[C@@H](Oc2cccc3c(Cl)ccnc23)CN1C(=O)[C@@H](NC(=O)OC(C)(C)C)C(C)(C)C)C(=O)NS(=O)(=O)C1CC1` (stereo partly drawn) [Compound 242, BOCNH-P3(L-t-BuGly)-P2[(4R)-(4-chloroquinoline-8-oxo)-S -proline]-P1(1R,2S VinylAcca)-CONHSO2Cyclopropane], in that order: under 0.1 µM and 1 to 10 µM.
As for `C=C[C@@H]1C[C@]1(NC(=O)[C@@H]1C[C@@H](Oc2cc(-c3ccccc3)ncn2)CN1C(=O)[C@@H](NC(=O)OC(C)(C)C)C(C)(C)C)C(=O)NS(=O)(=O)C1CC1` [Compound 411], the IC50 in experiment [1] (setting [3]) is under 0.1 µM. The EC50 in experiment [2] fell in the range of 0.1 to 1 µM.

What is called IC50 is the point on the concentration scale where inhibition reaches its midpoint. A word on the EC50: it is the concentration needed to bring the measured effect to its halfway point.

Values taken from patent publication US7915291B2, “Hepatitis C virus inhibitors” (Bristol-Myers Squibb Company, priority 2002, dated 2011).
